Publication PMC3278557 (Pharmacological Research, 2011)

Test system: cultured neonatal rat cardiomyocytes
Test: Effects on hypoxic cardiomyocytes
Type: cell-based

Row | Compound | antagonism of the protective effect of 6 (1 nM) (antagonist at 1 μM, LDH release or PI staining) | anti-hypoxic protective potency (concentration range) | cardioprotection of hypoxic cardiomyocytes (100 nM)
1 | CCCOC(=O)c1c(-c2ccccc2)nc(CC)c(C(=O)SCC)c1CCC [MRS1523, 5-propyl-2-ethyl-4-propyl-3-(ethylsulfanylcarbonyl)-6-phenylpyridine-5-carboxylate] | completely reversed | – | –
2 | CNC(=O)[C@H]1O[C@@H](n2cnc3c(NCc4cccc(I)c4)nc(Cl)nc32)[C@H](O)[C@@H]1O [Cl-IB-MECA, 2-chloro-N^6-(3-iodobenzyl)-5′-N-methylcarboxamidoadenosine] | – | ~100 nM | provided cardioprotection
